Where a SMILES comes first, the peptide text is derived from it. Where no end group is shown, it is not given here.
Experiments:
E. coli DC2 = type: cell-based, Escherichia coli; conditions: E. coli DC2, 0.1M KCl
Description: The minimal inhibitory concentration (MIC) of peptides was determined by a modified two-fold microtitre broth dilution method modified from that of Steinberg et al (Steinberg, Antimicrob. Agents Chemother. 41:1738, 1997). Using the classical method (Amsterdam, Antibiotics in Laboratory Medicine (Lorian, V., ed) pp. 72-78, 1991), higher concentrations of peptides tend to precipitate in the LB broth, thus the concentrations of peptides in the sequential wells are not accurate. Also the peptides stick to the most readily available (tissue-culture treated polystyrene) 96-well microtitre plates. Therefore the 2× series of dilutions was performed in Eppendoff tubes (polypropylene) before mixing with LB broth. Serial of two fold dilutions of peptides ranging from 640 μg/ml to 1.25 μg/ml were made in 0.2% BSA, 0.01% acetic acid buffer in the Eppendoff tubes. Ten μl of each concentration was added to each corresponding well of a 96-well microtiter plate (polypropylene cluster; Costar Corporation, Cambridge, Mass.). Bacteria were grown overnight and diluted 10-5 into fresh LB broth or Todd Hewitt broth for Streptococcus. LB medium contained 10 g/1l tryptone and 5 g/yeast extract, with no salt. Todd Hewitt contained 500 g/l beef heart infusion, 20 g/l bacto neopeptone, 2 g/l bacto dextrose, 2 g/l sodium chloride, 0.4 g/l disodium phosphate, 2.5 g/l sodium carbonate. One hundred […] containing about 10^4-10^5 CFU/ml of tested bacteria was added to each well. […]
It has been proposed that the antibacterial target of cationic peptides be at the cytoplasmic membrane. […] Once inside the cells, diS-C3-(5) becomes concentrated and self-quenches its own fluorescence. If peptides form channels or otherwise disrupt the membrane, the membrane potential will be dissipated, and the DiS-C3-(5) will be released into the medium causing the fluorescence to increase, as can be detected by fluorescent spectrometry. […] Therefore the MICs of bactenecin, reduced bactenecin and bac2S in the presence of 0.1M KCl were determined and shown to be 8-16 μg/ml (i.e. 4 to 8 fold higher than in low salt). […]

Staph. aureus = test: MIC, modified two-fold microtitre broth dilution; type: cell-based, Staphylococcus aureus
Description: (§1) Bacterial strains for antimicrobial activity testing included Escherichia coli UB1005 and its antibiotic supersusceptible derivative DC2 (Richmond et al., Antimicrob. Agents Chemother. 10:215, 1976), Pseudomonas aeruginosa K799 and its antibiotic-supersusceptible derivative Z61 (Angus et al., Antimicrob. Agents Chemother. 21:299, 1982), Salmonella typhimurium 14028s and its defensin-supersusceptible derivative MS7953s (Fields et al., Science, 243:1059, 1989), Staphylococcus aureus ATCC25923 and a clinical isolate Staphylococcus aureus SAP1007. Other Gram-positive bacterial strains include Staphylococcus epidermidis (clinical isolate) and Enterococcus faecalis ATCC29212, Listeria monocytogenes, Corynebacterium xerosis, Streptococcus pneumoniae ATTC49619, Streptococcus pyogenes ATTC19615, Streptococcus mitis.
(§2) The minimal inhibitory concentration (MIC) of peptides was determined by a modified two-fold microtitre broth dilution method modified from that of Steinberg et al (Steinberg, Antimicrob. Agents Chemother. 41:1738, 1997). Using the classical method (Amsterdam, Antibiotics in Laboratory Medicine (Lorian, V., ed) pp. 72-78, 1991), higher concentrations of peptides tend to precipitate in the LB broth, thus the concentrations of peptides in the sequential wells are not accurate. Also the peptides stick to the most readily available (tissue-culture treated polystyrene) 96-well microtitre plates. Therefore the 2× series of dilutions was performed in Eppendoff tubes (polypropylene) before mixing with LB broth. Serial of two fold dilutions of peptides ranging from 640 μg/ml to 1.25 μg/ml were made in 0.2% BSA, 0.01% acetic acid buffer in the Eppendoff tubes. Ten μl of each concentration was added to each corresponding well of a 96-well microtiter plate (polypropylene cluster; Costar Corporation, Cambridge, Mass.). Bacteria were grown overnight and diluted 10-5 into fresh LB broth or Todd Hewitt broth for Streptococcus. LB medium contained 10 g/1l tryptone and 5 g/yeast extract, with no salt. Todd Hewitt contained 500 g/l beef heart infusion, 20 g/l bacto neopeptone, 2 g/l bacto dextrose, 2 g/l sodium chloride, 0.4 g/l disodium phosphate, 2.5 g/l sodium carbonate. One hundred […] containing about 10^4-10^5 CFU/ml of tested bacteria was added to each well. The plate was incubated at 37° C. overnight. The MIC was taken as the concentration at which greater than 90% of growth inhibition was observed.

Strep. pyogenes = test: MIC, modified two-fold microtitre broth dilution; type: cell-based, Streptococcus pyogenes; conditions: for MIC Strep. pyogeness: Table IID, linear (Group 2): reduced forms of the peptides, Bac (Oxidized) as comparator
Description: as §1, §2

E.coli UB1005 = test: MIC, modified two-fold microtitre broth dilution; type: cell-based, Escherichia coli
Description: as §1, §2

E.facaelis = test: MIC, modified two-fold microtitre broth dilution; type: cell-based, Enterococcus faecalis
Description: as §1, §2

P.aeruginosa = test: MIC, modified two-fold microtitre broth dilution; type: cell-based, Pseudomonas aeruginosa
Description: as §1, §2

Staph. epidermidis = test: MIC, modified two-fold microtitre broth dilution; type: cell-based, Staphylococcus epidermidis
Description: as §1, §2

Listeria monocytogenes = test: MIC, modified two-fold microtitre broth dilution; type: cell-based
Description: as §1, §2

C. xerosis = test: MIC, modified two-fold microtitre broth dilution; type: cell-based, Corynebacterium xerosis
Description: as §1, §2

Strep. pneumoniae = test: MIC, modified two-fold microtitre broth dilution; type: cell-based, Streptococcus pneumoniae; conditions: for MIC Strep. pneumonia: Table IID, linear (Group 2): reduced forms of the peptides, Bac (Oxidized) as comparator; for MIC S. pneumonia: Table IIIB, non-linear positive-charge modification derivatives
Description: as §1, §2

S.typhimurium = test: MIC, modified two-fold microtitre broth dilution; type: cell-based, Salmonella typhimurium
Description: as §1, §2

Strep. mitis = test: MIC, modified two-fold microtitre broth dilution; type: cell-based, Streptococcus mitis; conditions: for MIC Strep. mitis: Table IID, linear (Group 2): reduced forms of the peptides, Bac (Oxidized) as comparator
Description: as §1, §2

[1] = Table IID, linear (Group 2): reduced forms of the peptides, Bac (Oxidized) as comparator
[2] = Table IIIB, non-linear positive-charge modification derivatives
[3] = Table IIC, linear (Group 2): reduced forms of the peptides, Bac (Oxidized) as comparator
[4] = table IIA, non-linear positive-charge modification derivatives
[5] = Table IVB, non-linear hydrophobicity modification derivatives
[6] = Table IVA, non-linear hydrophobicity modification derivatives

| Molecule | Minimal Agglutinating Concentration, Oxidized Form (Human Red Blood Cells) [µg/mL] | MIC Staph. aureus (Staph. aureus; [1]) [µg/mL] | MIC Staph. aureus (Staph. aureus; [2]) [µg/mL] | MIC Strep. pyogeness (Strep. pyogenes) [µg/mL] | MIC Strep. pyogenes (Strep. pyogenes; [2]) [µg/mL] | MIC E.coli UB1005 (E.coli UB1005; [3]) [µg/mL] | MIC E.coli UB1005 (E.coli UB1005; [4]) [µg/mL] | MIC E.facaelis (E.facaelis; [1]) [µg/mL] | MIC E.facaelis (E.facaelis; [2]) [µg/mL] | MIC P. aeruginosa (P.aeruginosa; [3]) [µg/mL] | MIC P. aeruginosa (P.aeruginosa; [4]) [µg/mL] | MIC Staph. epidermidis (Staph. epidermidis; [1]) [µg/mL] | MIC Staph. epidermidis (Staph. epidermidis; [2]) [µg/mL] | MIC Listeria (Listeria monocytogenes; [1]) [µg/mL] | MIC Listeria (Listeria monocytogenes; [2]) [µg/mL] | MIC C. xerosis (C. xerosis; [1]) [µg/mL] | MIC Strep. pneumonia (Strep. pneumoniae) [µg/mL] | MIC S. typhimurium (S.typhimurium; [3]) [µg/mL] | Minimal Agglutinating Concentration, Reduced Form (Human Red Blood Cells) [µg/mL] | MIC Strep. mitis (Strep. mitis) [µg/mL] | also measured |
| --- | --- | --- | --- | --- | --- | --- | --- | --- | --- | --- | --- | --- | --- | --- | --- | --- | --- | --- | --- | --- | --- |
| CC[C@H](C)[C@H](NC(=O)[C@H](CCCNC(=N)N)NC(=O)[C@H](CS)NC(=O)[C@H](CC(C)C)NC(=O)[C@@H](N)CCCNC(=N)N)C(=O)N[C@H](C(=O)N[C@H](C(=O)N[C@H](C(=O)N[C@@H](CCCNC(=N)N)C(=O)N[C@H](C(=O)N[C@@H](CS)C(=O)N[C@@H](CCCNC(=N)N)C(=O)O)C(C)C)[C@@H](C)CC)C(C)C)C(C)C [Bac (Reduced), RLCRIVVIRVCR] (H-RLCRIVVIRVCR-OH) | 16 | – | – | – | – | – | – | – | – | – | – | – | – | – | – | – | – | – | – | – | MIC in the presence of 0.1M KCl (E. coli DC2): 8 to 16 µg/mL; concentration causing agglutination of human red blood cells (Human Red Blood Cells): 16000 to 32000 ng/mL |
| RLSRIVVIRVSR [Bac 2S, RLSRIVVIRVSR] | > 64 | – | – | – | – | – | – | – | – | – | – | – | – | – | – | – | – | – | – | – | MIC in the presence of 0.1M KCl (E. coli DC2): 8 to 16 µg/mL |
| RRLCRIVVIRVCRR [Bac 2R, tested oxidized and reduced] | 64 | > 64 | 64 | 16 | 8 | 4 | 2 | 4 | 32 | 16 | 4 | 4 | 8 | 0.5 | < 0.125 | 0.25 | > 64 | 32 | 32 | 0.5 | MIC against P. aeruginosa, times better than native bactenecin (P.aeruginosa): 2 X; MIC C. xerosis (C. xerosis; [2]): 1 µg/mL; MIC S. pneumonia (Strep. pneumoniae): > 64 µg/mL; MIC against S. typhimurium, times better than native bactenecin (S.typhimurium): 2 X; MIC S. typhimurium (S.typhimurium; [4]): 4 µg/mL; MIC S. mitis (Strep. mitis; [2]): 0.5 µg/mL |
| RRLCRIVWVIRVCRR [Bac 2R, W, tested oxidized and reduced] | 32 | > 64 | – | 32 | – | > 64 | – | > 64 | – | > 64 | – | 32 | – | 4 | – | 2 | 64 | > 64 | 8 | 2 | MIC Staph. aureus (Staph. aureus; [5]): 2 µg/mL; MIC Strep. pyogenes (Strep. pyogenes; [5]): 1 µg/mL; MIC E.coli UB1005 (E.coli UB1005; [6]): 2 µg/mL; MIC E.facaelis (E.facaelis; [5]): 2 µg/mL; MIC P. aeruginosa (P.aeruginosa; [6]): 2 µg/mL; MIC Staph. epidermidis (Staph. epidermidis; [5]): 1 µg/mL; MIC Listeria (Listeria monocytogenes; [5]): 0.25 µg/mL; MIC C. xerosis (C. xerosis; [5]): 0.25 µg/mL; MIC S. pneumoniae (Strep. pneumoniae; [5]): 8 µg/mL; MIC S. typhimurium (S.typhimurium; [6]): 2 µg/mL; concentration causing agglutination of human red blood cells (Human Red Blood Cells): 16000 to 32000 ng/mL; MIC S. mitis (Strep. mitis; [5]): 0.25 µg/mL |
| RRRCPIVVIRVCRR [Bac 3R, P, tested oxidized and reduced] | 64 | > 64 | > 64 | 16 | 8 | 8 | 2 | 64 | 32 | > 64 | 8 | 16 | 16 | 2 | 0.5 | 0.5 | > 64 | > 64 | 16 | 0.5 | MIC C. xerosis (C. xerosis; [2]): 4 µg/mL; MIC S. pneumonia (Strep. pneumoniae): > 64 µg/mL; MIC S. typhimurium (S.typhimurium; [4]): 8 µg/mL; MIC S. mitis (Strep. mitis; [2]): 1 µg/mL |
| RRRLCPIVIRVCRR [Bac 3R, P, (V), tested oxidized and reduced] | > 64 | > 64 | > 64 | 8 | 4 | 4 | 2 | 32 | > 64 | 32 | 8 | 8 | 16 | 1 | 1 | 0.5 | > 64 | 32 | 32 | 1 | MIC C. xerosis (C. xerosis; [2]): 4 µg/mL; MIC S. pneumonia (Strep. pneumoniae): > 64 µg/mL; MIC S. typhimurium (S.typhimurium; [4]): 8 µg/mL; MIC S. mitis (Strep. mitis; [2]): 1 µg/mL |
